≈ marks a conversion by molar mass, not a printed value.
Columns and labels:
[1] = tested on: MOLT-4; test: NCI-60 DTP human tumor cell line screening; assay type: cell-based; conditions: Leukemia MOLT-4
[2] = tested on: RPMI-8226; test: NCI-60 DTP human tumor cell line screening; assay type: cell-based; conditions: Leukemia RPMI-8226
[3] = tested on: SR; test: NCI-60 DTP human tumor cell line screening; assay type: cell-based; conditions: Leukemia SR
[4] = tested on: EKVX; test: NCI-60 DTP human tumor cell line screening; assay type: cell-based; conditions: Non-small cell lung cancer EKVX
[5] = tested on: HOP-92; test: NCI-60 DTP human tumor cell line screening; assay type: cell-based; conditions: Non-small cell lung cancer HOP-92
[6] = tested on: NCI-H23; test: NCI-60 DTP human tumor cell line screening; assay type: cell-based; conditions: Non-small cell lung cancer NCI-H23
[7] = tested on: NCI-H322M; test: NCI-60 DTP human tumor cell line screening; assay type: cell-based; conditions: Non-small cell lung cancer NCI-H322M
[8] = tested on: NCI-H460; test: NCI-60 DTP human tumor cell line screening; assay type: cell-based
[9] = tested on: NCI-H522; test: NCI-60 DTP human tumor cell line screening; assay type: cell-based; conditions: Non-small cell lung cancer NCI-H522
[10] = tested on: HCT-116; test: NCI-60 DTP human tumor cell line screening; assay type: cell-based; conditions: Colon cancer HCT-116
[11] = tested on: HCT-15; test: NCI-60 DTP human tumor cell line screening; assay type: cell-based; conditions: Colon cancer HCT-15
[12] = tested on: HT29; test: NCI-60 DTP human tumor cell line screening; assay type: cell-based
[13] = tested on: SF-268; test: NCI-60 DTP human tumor cell line screening; assay type: cell-based; conditions: CNS cancer SF-268
[14] = tested on: LOX IMVI; test: NCI-60 DTP human tumor cell line screening; assay type: cell-based; conditions: Melanoma LOX IMVI
[15] = tested on: MALME-3M; test: NCI-60 DTP human tumor cell line screening; assay type: cell-based; conditions: Melanoma MALME-3M
[16] = tested on: SK-MEL-2; test: NCI-60 DTP human tumor cell line screening; assay type: cell-based; conditions: Melanoma SK-MEL-2
[17] = tested on: SK-MEL-28; test: NCI-60 DTP human tumor cell line screening; assay type: cell-based; conditions: Melanoma SK-MEL-28
[18] = tested on: UACC-257; test: NCI-60 DTP human tumor cell line screening; assay type: cell-based; conditions: Melanoma UACC-257
[19] = tested on: NCI/ADR-RES; test: NCI-60 DTP human tumor cell line screening; assay type: cell-based
[20] = tested on: 786-0; test: NCI-60 DTP human tumor cell line screening; assay type: cell-based; conditions: Renal cancer 786-0
[21] = tested on: A498; test: NCI-60 DTP human tumor cell line screening; assay type: cell-based; conditions: Renal cancer A498
[22] = tested on: CAKI-1; test: NCI-60 DTP human tumor cell line screening; assay type: cell-based; conditions: Renal cancer CAKI-1
[23] = tested on: SN 12C; test: NCI-60 DTP human tumor cell line screening; assay type: cell-based; conditions: Renal cancer SN 12C
[24] = tested on: TK-10; test: NCI-60 DTP human tumor cell line screening; assay type: cell-based
[25] = tested on: UO-31; test: NCI-60 DTP human tumor cell line screening; assay type: cell-based; conditions: Renal cancer UO-31
[26] = tested on: PC-3; test: NCI-60 DTP human tumor cell line screening; assay type: cell-based; conditions: Prostate cancer PC-3
[27] = tested on: DU-145; test: NCI-60 DTP human tumor cell line screening; assay type: cell-based; conditions: Prostate cancer DU-145
[28] = tested on: MCF-7; test: NCI-60 DTP human tumor cell line screening; assay type: cell-based
[29] = tested on: BT-549; test: NCI-60 DTP human tumor cell line screening; assay type: cell-based; conditions: Breast cancer BT-549
[30] = tested on: MDA-MB-468; test: NCI-60 DTP human tumor cell line screening; assay type: cell-based
[31] = tested on: SK-MEL-5; test: NCI-60 DTP human tumor cell line screening
[32] = tested on: P. acnes ATCC 11827; test: Antibacterial activity, MIC in broth serial dilution
Experimental: Compounds were tested at serial dilutions in bacterial broth starting at 100 μg/cm^3 (final concentration). P. acnes (ATCC 11827, lot 419697) was grown in thioglycollate nutrient broth (Hardy Diagnostics K29) for 72 h at 33 °C, then inoculated at the density equivalent to 0.5 McFarland standard and incubated with the test materials for another 72 h in an anaerobic environment. […] At the end of the incubation the MIC was assessed optically as the lowest concentration of a test material which caused no bacteria growth [34]. This optical assessment was further confirmed by measuring the absorbance at 655 nm with the BioRad 3550-UV microplate reader. The MIC was defined as at least 50 % inhibition of the increase of OD.

`NC(=NS(=O)(=O)c1ccccc1Cl)c1ccc2ccccc2n1` [Compound 15, N′-(2-Chlorophenylsulfonyl)quinoline-2-carboximidamide] was tested, and the GI50 ([1]; Homo sapiens) was 5.91 µM, the TGI [1] was “^c (Determined TGI values were >100 μM)” and the GI50 ([2]; Homo sapiens) was 5.27 µM. For the same molecule, the TGI [2] was “^c (Determined TGI values were >100 μM)”, the GI50 ([3]; Homo sapiens) was 920 nM and the TGI [3] was 21.40 µM. For the same molecule, the GI50 ([4]; Homo sapiens) was 8.75 µM, the TGI [4] was “^c (Determined TGI values were >100 μM)” and the GI50 ([5]; Homo sapiens) was 9.34 µM. The TGI [5] was 90.80 µM, the GI50 ([6]; Homo sapiens) was 5.44 µM and the TGI [6] was “^c (Determined TGI values were >100 μM)”. The GI50 ([7]; Homo sapiens) was 5.19 µM, the TGI [7] was “^c (Determined TGI values were >100 μM)” and the inhibition at 10 µM ([8]; Homo sapiens, NCI-H460, read-out: Growth inhibition ΔGI) was 19.6%. The GI50 ([8]; Homo sapiens, Non-small cell lung cancer NCI-H460) was 4.02 µM, the TGI ([8]; Non-small cell lung cancer NCI-H460) was “^c (Determined TGI values were >100 μM)” and the GI50 ([9]; Homo sapiens) was 2280 nM. For the same molecule, the TGI [9] was 7.62 µM, the TGI [10] was “^c (Determined TGI values were >100 μM)” and the GI50 ([10]; Homo sapiens) was 4.66 µM. For the same molecule, the TGI [11] was “^c (Determined TGI values were >100 μM)”, the GI50 ([11]; Homo sapiens) was 4.23 µM and the TGI ([12]; Colon cancer HT29) was 14.90 µM. For the same molecule, the inhibition at 10 µM ([12]; Homo sapiens, HT-29, read-out: Growth inhibition ΔGI) was 60.4%, the GI50 ([12]; Homo sapiens, HT-29, Colon cancer HT29) was 3.4 µM and the TGI [13] was “^c (Determined TGI values were >100 μM)”. For the same molecule, the GI50 ([13]; Homo sapiens) was 6.79 µM, the GI50 ([14]; Homo sapiens) was 4.05 µM and the TGI [14] was “^c (Determined TGI values were >100 μM)”. The GI50 ([15]; Homo sapiens) was 5.42 µM, the TGI [15] was “^c (Determined TGI values were >100 μM)” and the GI50 ([16]; Homo sapiens) was 3.4 µM. For the same molecule, the TGI [16] was “^c (Determined TGI values were >100 μM)”, the GI50 ([17]; Homo sapiens) was 5.45 µM and the TGI [17] was 12.00 µM. For the same molecule, the GI50 ([18]; Homo sapiens) was 11.7 µM, the TGI [18] was “^c (Determined TGI values were >100 μM)” and the inhibition at 10 µM ([19]; Homo sapiens, NCI/ADR-RES, read-out: Growth inhibition ΔGI) was 42.9%. For the same molecule, the GI50 ([19]; Homo sapiens, Ovarian cancer NCI/ADR-RES) was 2320 nM, the TGI ([19]; Ovarian cancer NCI/ADR-RES) was 50.50 µM and the GI50 ([20]; Homo sapiens) was 4.94 µM. The TGI [20] was “^c (Determined TGI values were >100 μM)”, the GI50 ([21]; Homo sapiens) was 8.08 µM and the TGI [21] was “^c (Determined TGI values were >100 μM)”. For the same molecule, the GI50 ([22]; Homo sapiens) was 5.21 µM, the TGI [22] was “^c (Determined TGI values were >100 μM)” and the GI50 ([23]; Homo sapiens, SN12C) was 7.67 µM. The TGI [23] was “^c (Determined TGI values were >100 μM)”, the inhibition at 10 µM ([24]; Homo sapiens, TK-10, read-out: Growth inhibition ΔGI) was 21.7% and the GI50 ([24]; Homo sapiens, Renal cancer TK-10) was 6.02 µM. For the same molecule, the TGI ([24]; Renal cancer TK-10) was 7.08 µM, the GI50 ([25]; Homo sapiens) was 7.26 µM and the TGI [25] was 48.50 µM. The GI50 ([26]; Homo sapiens) was 9.59 µM, the TGI [26] was “^c (Determined TGI values were >100 μM)” and the GI50 ([27]; Homo sapiens) was 4.96 µM. For the same molecule, the TGI [27] was “^c (Determined TGI values were >100 μM)”, the TGI ([28]; Breast cancer MCF-7) was “^c (Determined TGI values were >100 μM)” and the inhibition at 10 µM ([28]; Homo sapiens, MCF7, read-out: Growth inhibition ΔGI) was 15.7%. For the same molecule, the GI50 ([28]; Homo sapiens, MCF7, Breast cancer MCF-7) was 3.28 µM, the TGI [29] was 56.00 µM and the GI50 ([29]; Homo sapiens) was 5.08 µM. The TGI ([30]; Breast cancer MDA-MB-468) was 6.19 µM, the inhibition at 10 µM ([30]; Homo sapiens, MDA-MB-468, read-out: Growth inhibition ΔGI) was 42.2% and the GI50 ([30]; Homo sapiens, Breast cancer MDA-MB-468) was 2010 nM. For the same molecule, the GI50 ([31]; Homo sapiens, SK-MEL-5) was 3.31 µM, the CC50 ([31]; Homo sapiens, SK-MEL-5, read-out: LC 50) was 36.2 µM and the TGI ([31]; Melanoma SK-MEL-5) was 50.50 µM. For the same molecule, the MIC ([32]; Cutibacterium acnes, ATCC11827, 72 h, read-out: MIC P. acnes, P. acnes ATCC 11827, 72 h anaerobic) was 12.5 to 50 µg/mL (≈ 36.1 to 145 µM) and the “MIC P. acnes” value ([32]; P. acnes ATCC 11827, 72 h anaerobic) was 12.5 µg/mL (≈ 36.1 µM).
